{
  "source": "paper PMC5894102",
  "about": "(Journal of medicinal chemistry, 2017)",
  "key": {"[1]": {"target": "LDHA (Homo sapiens, UniProt P00338)", "type": "cell-based"}, "[2]": {"conditions": "cited from earlier work"}, "[3]": {"system": "CYP", "conditions": "cited from earlier work"}, "[4]": {"experiment": "in vitro", "conditions": "human, A673 cells"}, "[5]": {"target": "human lactate dehydrogenase 5 (LDHA) (Homo sapiens, UniProt P00338)", "experiment": "LDHA biochemical assay"}, "[6]": {"experiment": "Mouse pharmacokinetic study", "type": "in vivo, CD1 mice", "conditions": "male, CD1, mouse, plasma, iv, 2 mg/kg"}, "[7]": {"system": "MiaPaCa-2 cells", "conditions": "120 hours"}},
  "data": [
    {"smiles": "NS(=O)(=O)c1ccc(Cc2c(-c3ccccc3)nn(-c3nc(C(=O)O)cs3)c2CC2CC2)cc1", "note": "[Analog 62]", "values": [
      {"measurement": "CETSA: Cellular LDHA stabilization AUC (norm'd)", "setting": "[1]", "result": 100.00}
    ]},
    {"smiles": "O=C(O)c1csc(-n2nc(-c3ccccc3)cc2C(F)(F)F)n1", "note": "[Analog 5]", "values": [
      {"measurement": "stability in human plasma", "setting": "[2]", "result": "stable in human plasma"},
      {"measurement": "CYP inhibition", "setting": "[3]", "result": "no appreciable CYP inhibition"}
    ]},
    {"smiles": "NS(=O)(=O)c1ccc(Cc2cn(-c3nc(C(=O)O)cs3)nc2-c2ccc(F)c(F)c2)cc1", "note": "[Analog 42]", "values": [
      {"measurement": "IC50 at 48 h", "setting": "[4]", "result": "> 57", "unit": "µM"}
    ]},
    {"smiles": "O=C(O)c1csc(-n2nc(-c3ccccc3)cc2O)n1", "note": "[Analog 11]", "values": [
      {"measurement": "improvement in potency on replacing CF3 by OH", "setting": "[5]", "result": "> 100", "unit": "fold"}
    ]},
    {"smiles": "O=C(O)c1csc(-n2nc(-c3ccc(F)cc3)cc2O)n1", "note": "[Analog 16]", "values": [
      {"measurement": "IC50", "setting": "[5]", "result": 0.15, "unit": "µM"}
    ]},
    {"smiles": "COc1ncc(-c2ccc3c(Nc4cc(Oc5cc(F)cc(F)c5)cc(C(=O)O)c4)c(S(=O)(=O)NC4CC4)cnc3c2)c(OC)n1", "note": "[Analog 2]", "values": [
      {"measurement": "IC50 at 48 h", "setting": "[4]", "result": "> 57", "unit": "µM"}
    ]},
    {"smiles": "NS(=O)(=O)c1ccc(Cc2c(-c3cccc(-c4ccccc4)c3)nn(-c3nc(C(=O)O)cs3)c2C2CC2)cc1", "note": "[Analog 61]", "values": [
      {"measurement": "half-life", "setting": "[6]", "result": 51, "unit": "min"}
    ]},
    {"smiles": "NS(=O)(=O)c1ccc(Cc2cn(-c3nc(C(=O)O)cs3)nc2-c2cccc(-c3ccccc3)c2)cc1", "note": "[Analog 44]", "values": [
      {"measurement": "CETSA: Cellular LDHA stabilization Max stab. (norm'd)", "setting": "[1]; A673 cells, Western blot band intensity scaled to maximum response of 44", "result": 100.0}
    ]},
    {"smiles": "NS(=O)(=O)c1ccc(Cc2c(-c3cccc(-c4ccccc4)c3)nn(-c3nc(C(=O)O)cs3)c2CC2CC2)cc1", "note": "[Analog 63]", "values": [
      {"measurement": "concentration with nearly complete arrest of cell growth", "setting": "[7]", "result": 20, "unit": "µM"},
      {"measurement": "lowest concentration with effects on cellular proliferation", "setting": "[7]; dose-response", "result": 250, "unit": "nM"}
    ]}
  ]
}
